Common to all, as to assay type: biochemical
The nature of assay [1]: metal chelating assay (EDTA chelating activity). The note with it: mean ± S.D.; NA: not active. From the text: (§1) Six in vitro assays were employed to evaluate the antioxidant activity of the three Salvia EOs. These were radical scavenging activity using 2,2-diphenyl-1-picryl-hydrazyl (DPPH), 2,2′-azino-bis(3-ethylbenzothiazoline-6-sulfonic acid) (ABTS) radical cation-based assay, total antioxidant capacity using cupric-reducing antioxidant capacity assay (CUPRAC), ferric-reducing antioxidant power assay (FRAP), EDTA chelating activity and phosphomolybdenum (PBD) assay.
(§2) In vitro assays were employed to evaluate the antioxidant activity of the three Salvia EOs using the 2,2-diphenyl-1-picryl-hydrazyl (DPPH), 2,2′-azino-bis(3-ethylbenzothiazoline-6-sulfonic acid) (ABTS) radical-cation-based assay, total antioxidant capacity using cupric-reducing antioxidant capacity assay (CUPRAC), ferric-reducing antioxidant power assay (FRAP), EDTA chelating activity and phosphomolybdenum (PBD) assay. These assays were performed according to previously described standard procedures, and values are expressed as Trolox or EDTA equivalent. The experimental procedures are given in supplemental materials. To provide a comparison with standard compounds, IC50 values (the half inhibitory concentration) were also calculated for DPPH, ABTS and metal chelating assays.

Assay [2] is described as follows: cupric-reducing antioxidant capacity assay (CUPRAC). The note with it: concentration at which absorbance is 0.5; mean ± S.D.
Description: as §1, §2

The nature of assay [3]: phosphomolybdenum (PBD) assay. Conditions: concentration at which absorbance is 0.5; mean ± S.D.
Description: as §1, §2

Assay [4] can be described thus: ferric-reducing antioxidant power assay (FRAP). Conditions: concentration at which absorbance is 0.5; mean ± S.D.
Description: as §1, §2

The nature of assay [5]: ABTS radical cation-based assay. Conditions: mean ± S.D.
Description: as §1, §2

The nature of assay [6]: DPPH radical scavenging assay. The note with it: mean ± S.D. of three measurements; NA: not active.
Description: as §1, §2

Structures are written as SMILES.

As to `O=C(O)CN(CCN(CC(=O)O)CC(=O)O)CC(=O)O` [EDTA], the “Chelating IC50” value in assay [1] came out at 40 ± 10 µg/mL.

With `Cc1c(C)c2c(c(C)c1O)CCC(C)(C(=O)O)O2` (stereo not drawn) [Trolox], in assay [2], the “CUPRAC IC50” value turned out to be 440 ± 20 µg/mL. Further, in assay [3], the “PBD IC50” value was 680 ± 10 µg/mL. Moreover, the “FRAP IC50” value in assay [4] amounted to 170 ± 10 µg/mL. For the same compound, the “ABTS IC50” value in assay [5] was 650 ± 90 µg/mL. Further, the “DPPH IC50” value in assay [6] is 220 ± 10 µg/mL.

The values above are taken from paper PMC9457740, “GC-MS Chemical Profiling, Biological Investigation of Three Salvia Species Growing in Uzbekistan” (Molecules, 2022).
